Common to all, as to assay: level (log10 ratio to DMSO vehicle control); higher = higher biomarker level / cell amount than vehicle control
Compound in assay [1]: O=C(Cl)C(F)(F)C(F)(F)C(F)(F)C(=O)Cl [Hexafluoroglutaryl chloride]
The conditions noted are these: in DMSO. The method, then: (§1)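 BioMAP Diversity Plus panel of 12 human primary cell co-culture systems (3C, 4H, LPS, SAg, BT, BF4T, BE3C, CASM3C, HDF3CGF, KF3CT, MyoF, Mphg). Compounds were added 1 h before stimulation and left for 24 h (MyoF 48 h; BT 72 h for soluble read-outs or 6 d for IgG). Biomarkers were read by ELISA, cytotoxicity by SRB, PBMC viability and proliferation by Alamar Blue. Each well value was divided by the mean of 8 DMSO control wells on the same plate and log10 transformed; duplicate blinded samples were tested at 4 concentrations.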

Compound in assay [2]: OCC(F)(F)C(F)(F)C(F)(F)C(F)(F)C(F)(F)C(F)(F)F [6:1 Fluorotelomer alcohol]
The settings on record: in DMSO. The method, then:
as §1

Compound in assay [3]: OCCCC(F)(F)C(F)(F)C(F)(F)C(F)(F)C(F)(F)C(F)(F)C(F)(F)C(F)(F)F [3-(Perfluorooctyl)propanol]
The settings on record: 6700 nM; in DMSO. Here is the method:
as §1

Compound in assay [4]: OC(C(F)(F)F)(C(F)(F)F)C(O)(C(F)(F)F)C(F)(F)F [Perfluoropinacol]
The conditions noted are these: in DMSO. The method, then: as §1

Compound in assay [5]: C=C(C)C(=O)OCC(F)(F)C(F)(F)C(F)(F)F [2,2,3,3,4,4,4-Heptafluorobutyl methacrylate]
The settings on record: in DMSO. The method, then:
as §1

Compound in assay [6]: OCCC(F)(F)C(F)(F)C(F)(F)C(F)(F)C(F)(F)C(F)(F)C(F)(F)C(F)(F)F [8:2 Fluorotelomer alcohol]
The conditions noted are these: 6700 nM; in DMSO. Here is the method: as §1

Compound in assay [7]: O=C(O)C(F)(F)C(F)(F)C(=O)O [Tetrafluorosuccinic acid]
The conditions noted are these: in DMSO. Here is the method:
as §1

Compound in assay [8]: O=C(CC(=O)C(F)(F)C(F)(F)C(F)(F)F)c1cccs1 [(Perfluorobutyryl)-2-thenoylmethane]
The conditions noted are these: in DMSO. Here is the method:
as §1

± gives the standard deviation of the averaged measurements.

These results are taken from the supplement of paper PMC10331698.

For CASM3C:CD141/Thrombomodulin, the “level (log10)” value is -0.0055 ± 0.037 in assay [1] (6700 nM); -0.0135 ± 0.063 in assay [1] (20000 nM); -0.0125 ± 0.044 in assay [1] (60000 nM); 0.0105 ± 0.044 in assay [2] (6700 nM); 0.023 ± 0.0028 in assay [2] (20000 nM); 0.023 ± 0.0099 in assay [2] (60000 nM). In addition, the “level (log10)” value in assay [3] was 0.0455 ± 0.019; in assay [4] (6700 nM), -0.0085 ± 0.021; in assay [4] (20000 nM) it was 0.0575 ± 0.0035; in assay [5] (6700 nM), 0.0205 ± 0.011; in assay [5] (20000 nM), 0 ± 0.042; in assay [5] (60000 nM) it was 0.0115 ± 0.036. The “level (log10)” value is 0.0135 ± 0.0021 in assay [6]; -0.0015 ± 0.012 in assay [7] (6700 nM); 0.013 ± 0.023 in assay [7] (20000 nM); -0.0265 ± 0.025 in assay [7] (60000 nM); 0.0115 ± 0.09 in assay [8] (6700 nM); -0.008 ± 0.1 in assay [8] (20000 nM).
Consider 3C:CD54/ICAM-1, for which the “level (log10)” value in assay [1] (6700 nM) is 0.002 ± 0.0014; in assay [1] (20000 nM), -0.006 ± 0.013; in assay [1] (60000 nM) it was 0.0025 ± 0.035; in assay [2] (6700 nM) it was 0.004; in assay [2] (20000 nM), -0.001 ± 0.0071; in assay [2] (60000 nM), -0.0815 ± 0.12. The “level (log10)” value in assay [3] was 0.0095 ± 0.0064; in assay [4] (6700 nM), 0.0055 ± 0.0021; in assay [4] (20000 nM), -0.0005 ± 0.021; in assay [5] (6700 nM), 0.002 ± 0.0028; in assay [5] (20000 nM) it was 0.007 ± 0.0042; in assay [5] (60000 nM), 0.0135 ± 0.005. In addition, the “level (log10)” value in assay [6] is -0.014 ± 0.0014; in assay [7] (6700 nM), -0.0015 ± 0.0092; in assay [7] (20000 nM), -0.016 ± 0.011; in assay [7] (60000 nM), 0.001 ± 0.0028; in assay [8] (6700 nM), -0.027 ± 0.021; in assay [8] (20000 nM) it was -0.0365 ± 0.00071.
In the case of HDF3CGF:CXCL10/IP-10, the “level (log10)” value in assay [1] (6700 nM) was -0.013 ± 0.021; in assay [1] (20000 nM) it was -0.01 ± 0.016; in assay [1] (60000 nM), -0.0235 ± 0.0035; in assay [2] (6700 nM) it was -0.002 ± 0.0014; in assay [2] (20000 nM), -0.017 ± 0.044; in assay [2] (60000 nM), -0.401 ± 0.061. Besides, the “level (log10)” value in assay [3] was -0.275 ± 0.057; in assay [4] (6700 nM) it was -0.0535 ± 0.023; in assay [4] (20000 nM) it was -0.215 ± 0.012; in assay [5] (6700 nM), -0.017 ± 0.0071; in assay [5] (20000 nM) it was -0.021 ± 0.0071; in assay [5] (60000 nM) it was -0.024 ± 0.016. The “level (log10)” value in assay [6] is -0.039 ± 0.0085; in assay [7] (6700 nM), -0.0225 ± 0.0078; in assay [7] (20000 nM) it was -0.027 ± 0.04; in assay [7] (60000 nM), -0.0425 ± 0.064; in assay [8] (6700 nM), -0.01; in assay [8] (20000 nM), -0.141 ± 0.012.
For HDF3CGF:PAI-I, the “level (log10)” value in assay [1] (6700 nM) is -0.05 ± 0.073; in assay [1] (20000 nM), -0.0215 ± 0.083; in assay [1] (60000 nM), -0.0155 ± 0.043; in assay [2] (6700 nM) it was 0.006 ± 0.018; in assay [2] (20000 nM) it was 0.0105 ± 0.026; in assay [2] (60000 nM), -0.103 ± 0.18. The “level (log10)” value was -0.391 ± 0.07 in assay [3]; -0.0325 ± 0.012 in assay [4] (6700 nM); -0.117 ± 0.0021 in assay [4] (20000 nM); -0.045 ± 0.011 in assay [5] (6700 nM); -0.018 ± 0.1 in assay [5] (20000 nM); 0.0135 ± 0.0035 in assay [5] (60000 nM). In addition, the “level (log10)” value in assay [6] was -0.0555 ± 0.0035; in assay [7] (6700 nM) it was -0.0295 ± 0.0078; in assay [7] (20000 nM) it was -0.009 ± 0.0014; in assay [7] (60000 nM), 0.003 ± 0.037; in assay [8] (6700 nM), 0.0475 ± 0.052; in assay [8] (20000 nM) it was -0.0845 ± 0.046.
As for lMphg:SRB-Mphg, the “level (log10)” value in assay [1] (6700 nM) was 0.007 ± 0.0057; in assay [1] (20000 nM) it was 0.0065 ± 0.005; in assay [1] (60000 nM), 0.0125 ± 0.011; in assay [2] (6700 nM), -0.0015 ± 0.0064; in assay [2] (20000 nM), -0.02 ± 0.014; in assay [2] (60000 nM), -0.0595 ± 0.054. Also, the “level (log10)” value in assay [3] is -0.049 ± 0.072; in assay [4] (6700 nM) it was -0.015 ± 0.0099; in assay [4] (20000 nM), -0.05 ± 0.0028; in assay [5] (6700 nM) it was 0.003; in assay [5] (20000 nM) it was -0.0115 ± 0.016; in assay [5] (60000 nM) it was 0.0155 ± 0.016. For the same test system, the “level (log10)” value in assay [6] was -0.015 ± 0.03; in assay [7] (6700 nM), -0.0035 ± 0.015; in assay [7] (20000 nM), -0.0075 ± 0.013; in assay [7] (60000 nM), -0.013 ± 0.016; in assay [8] (6700 nM), 0.005 ± 0.011; in assay [8] (20000 nM), -0.054 ± 0.0028.
As for CASM3C:M-CSF, the “level (log10)” value in assay [1] (6700 nM) was -0.001 ± 0.0028; in assay [1] (20000 nM) it was 0.0095 ± 0.057; in assay [1] (60000 nM) it was 0.03 ± 0.051; in assay [2] (6700 nM), -0.013 ± 0.0042; in assay [2] (20000 nM), -0.013 ± 0.037; in assay [2] (60000 nM) it was -0.0855 ± 0.023. Besides, the “level (log10)” value in assay [3] was -0.0325 ± 0.025; in assay [4] (6700 nM), 0.0505 ± 0.0021; in assay [4] (20000 nM), 0.0315 ± 0.0092; in assay [5] (6700 nM), 0.003 ± 0.016; in assay [5] (20000 nM), 0.0245 ± 0.019; in assay [5] (60000 nM) it was 0.024 ± 0.0099. In addition, the “level (log10)” value was -0.0135 ± 0.012 in assay [6]; -0.008 ± 0.035 in assay [7] (6700 nM); -0.015 ± 0.016 in assay [7] (20000 nM); 0.0095 ± 0.033 in assay [7] (60000 nM); 0.014 in assay [8] (6700 nM); 0.012 ± 0.04 in assay [8] (20000 nM).
Take HDF3CGF:EGFR: the “level (log10)” value in assay [1] (6700 nM) is -0.0195 ± 0.012; in assay [1] (20000 nM), -0.0115 ± 0.011; in assay [1] (60000 nM) it was -0.01 ± 0.057; in assay [2] (6700 nM), 0.009 ± 0.041; in assay [2] (20000 nM), 0.0125 ± 0.019; in assay [2] (60000 nM), -0.0555 ± 0.035. In addition, the “level (log10)” value in assay [3] was -0.31 ± 0.071; in assay [4] (6700 nM) it was -0.029 ± 0.057; in assay [4] (20000 nM) it was -0.146 ± 0.038; in assay [5] (6700 nM) it was -0.018 ± 0.09; in assay [5] (20000 nM) it was -0.0115 ± 0.057; in assay [5] (60000 nM), -0.064 ± 0.041. The “level (log10)” value in assay [6] is 0.037 ± 0.0085; in assay [7] (6700 nM) it was -0.0065 ± 0.033; in assay [7] (20000 nM) it was -0.008 ± 0.0028; in assay [7] (60000 nM), 0.029 ± 0.038; in assay [8] (6700 nM), -0.101 ± 0.073; in assay [8] (20000 nM) it was -0.0595 ± 0.018.
For KF3CT:SRB, the “level (log10)” value is -0.0015 ± 0.005 in assay [1] (6700 nM); 0.005 ± 0.0014 in assay [1] (20000 nM); 0.0055 ± 0.0064 in assay [1] (60000 nM); -0.0035 ± 0.0064 in assay [2] (6700 nM); -0.0025 ± 0.0035 in assay [2] (20000 nM); -0.004 ± 0.0028 in assay [2] (60000 nM). Besides, the “level (log10)” value is -0.053 in assay [3]; -0.004 ± 0.0042 in assay [4] (6700 nM); -0.014 ± 0.02 in assay [4] (20000 nM); 0.0025 ± 0.0021 in assay [5] (6700 nM); 0.0045 ± 0.011 in assay [5] (20000 nM); -0.0075 ± 0.00071 in assay [5] (60000 nM). Further, the “level (log10)” value in assay [6] is 0.0075 ± 0.0064; in assay [7] (6700 nM), -0.012; in assay [7] (20000 nM), -0.0005 ± 0.0078; in assay [7] (60000 nM), 0.001 ± 0.0042; in assay [8] (6700 nM), -0.008; in assay [8] (20000 nM), -0.0105 ± 0.005.
